Laboratory results published in PubChem BioAssay (NCI).
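Growth conditions: 96-well plates. Treatment: test compound, 48 hours, 5 concentrations. Analysis: linear interpolation between bracketing concentrations; unreached endpoints set to highest concentration. GI50 marks 50% less growth. TGI: total growth inhibition.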

Experiments:
Test in all cases: NCI anticancer screen, dose series, 48 h
NCI-H460 lung = test system: NCI-H460 lung
KM12 colon = test system: KM12 colon
HCT-15 colon = test system: HCT-15 colon
RPMI-8226 leukemia = test system: RPMI-8226 leukemia
TK-10 renal = test system: TK-10 renal
SF-295 CNS = test system: SF-295 CNS
SNB-75 CNS = test system: SNB-75 CNS
HOP-62 NSCLC = test system: HOP-62 NSCLC
OVCAR-3 ovarian = test system: OVCAR-3 ovarian
HOP-92 NSCLC = test system: HOP-92 NSCLC

Compound | TGI (NCI-H460 lung) | TGI (KM12 colon) | TGI (HCT-15 colon) | TGI (RPMI-8226 leukemia) | TGI (TK-10 renal) | TGI (SF-295 CNS) | TGI (SNB-75 CNS) | TGI (HOP-62 NSCLC) | TGI (OVCAR-3 ovarian) | TGI (HOP-92 NSCLC) | GI50 (NCI-H460 lung) | GI50 (KM12 colon) | GI50 (HCT-15 colon) | GI50 (RPMI-8226 leukemia) | GI50 (TK-10 renal) | GI50 (SF-295 CNS) | GI50 (SNB-75 CNS) | GI50 (OVCAR-3 ovarian) | GI50 (HOP-92 NSCLC) | GI50 (HOP-62 NSCLC)
CC[P+](C)(C)CC | > 100 µM | > 100 µM | > 100 µM | > 100 µM | > 100 µM | > 100 µM | > 100 µM | > 100 µM | > 100 µM | > 100 µM |  |  |  |  |  |  |  |  |  | 
C=CC(=O)N1CCN(c2nc(OC[C@@H]3CCCN3C)nc3c(F)c(-c4nc(N)cc(C)c4C(F)(F)F)c(Cl)cc23)[C@@H](C)C1 | 5.39 µM | 4.56 µM | 3.47 µM | 7.06 µM | 4.53 µM | 16.9 µM | 2.74 µM | 13.1 µM | 3.14 µM | 3.71 µM | 2.29 µM | 2.11 µM | 1.7 µM | 2.49 µM | 2.01 µM | 4.74 µM | 1.22 µM | 1.66 µM | 1.75 µM | 
O=NN(CC(=O)NNc1ccccc1)CC(=O)NNc1ccccc1 | > 100 µM | > 100 µM | > 100 µM | > 100 µM | > 100 µM | 7.81 µM | > 100 µM | > 100 µM | > 100 µM | > 100 µM | 4.34 µM | 0.893 µM | 12.3 µM | 12.4 µM | > 100 µM | 2.34 µM | > 45.4 µM | 11.3 µM | > 100 µM | > 100 µM
O=[N+]([O-])c1cc2c(ccc3ccccc32)o1 | 1.06 µM | 4.02 µM | 2.35 µM | 6.81 µM | 7.43 µM | 3.34 µM | 2.27 µM | 4.92 µM | 4.64 µM | 0.774 µM | 0.276 µM | 0.973 µM | 0.345 µM | 1.13 µM | 1.82 µM | 0.347 µM | 0.497 µM | 1.31 µM | 0.257 µM | 1.31 µM
CCOC(=O)c1nc2sc(Cl)cn2c1/C=N/N=C(N)N | > 59.6 µM | 36.6 µM | > 75.2 µM | > 51.5 µM | 47.6 µM | > 52.3 µM | 68.8 µM | 40.4 µM | 42.1 µM | 40.8 µM | 28.2 µM | 18.3 µM | 26.8 µM | 13 µM | 22.2 µM | 27.7 µM | 27.9 µM | 21.5 µM | 20 µM | 19.1 µM
CC1Nc2ccccc2NC1C=C(C#N)C#N (configuration not stated) | 42.5 µM | 31.9 µM | 37.3 µM | 29.2 µM | 34.2 µM | 28.9 µM | 30.3 µM | 43.7 µM | 29.4 µM | 28.4 µM |  |  |  |  |  |  |  |  |  | 
O=C1/C(=C/c2ccccc2)CN(C(=O)/C=C/c2ccccc2)C/C1=C\c1ccccc1 | 39.3 µM | 12.2 µM | 18.3 µM | 10.8 µM | 65.3 µM | 17 µM | 60.5 µM | 48.9 µM | 24.7 µM | 62.2 µM |  |  |  |  |  |  |  |  |  | 
Cc1ccccc1-c1cc(=O)c2cc(C)c(C)c(C(=O)O)c2o1 | > 100 µM | > 100 µM | > 100 µM | > 100 µM | > 100 µM | > 100 µM | > 100 µM | > 100 µM | > 100 µM | > 100 µM |  |  |  |  |  |  |  |  |  | 
O=C1/C(=C/c2ccc([N+](=O)[O-])s2)Oc2ccc(Br)cc21 | 1.63 µM | 0.623 µM | 0.583 µM | 1.14 µM | 4.66 µM | 3.35 µM | 4.17 µM | 4.3 µM | 0.409 µM | 0.606 µM | 0.396 µM | 0.247 µM | 0.208 µM | 0.278 µM | 0.389 µM | 1.24 µM | 0.342 µM | 0.207 µM | 0.21 µM | 1 µM
CC(=O)OC1CCC2(C)C(=CCC3C2CCC2(C)C3CC3OC4(CCC(C)CN4)C(C)C32)C1 (configuration not stated) | > 100 µM | > 100 µM | > 100 µM | > 100 µM | > 100 µM | > 100 µM | > 100 µM | > 100 µM | > 100 µM | > 100 µM |  |  |  |  |  |  |  |  |  | 
NNC(=S)N/N=C(\c1nc2ccc(Cl)cc2[nH]c1=O)C(O)c1cccc([N+](=O)[O-])c1 (configuration not stated) | > 100 µM | > 100 µM | > 100 µM | > 63.7 µM | > 100 µM | > 100 µM | > 100 µM | > 55.8 µM | > 100 µM | > 100 µM |  |  |  |  |  |  |  |  |  | 
COc1cc2c(cc1OCCCN1CCN(CCCOc3cc4c(cc3OC)C(=O)N3C[C@H](F)C[C@H]3C=N4)CC1)N=C[C@@H]1C[C@@H](F)CN1C2=O |  |  | 12.9 µM | 1.04 µM | 3.28 µM | > 100 µM | 0.594 µM | 0.0418 µM | 2.91 µM | 14.6 µM | < 0.01 µM | 0.18 µM | 2.15 µM | 0.0226 µM | 0.309 µM | 0.0457 µM | 0.0338 µM | 0.119 µM | 0.064 µM | 0.013 µM
COC(=O)c1cc2c3cc(Cl)ccc3[nH]c2c2ncccc12 | > 100 µM | > 100 µM | > 100 µM | > 100 µM | > 100 µM | > 100 µM | > 100 µM | > 100 µM | > 100 µM | > 100 µM | > 100 µM | > 100 µM | > 100 µM | > 100 µM | > 100 µM | > 100 µM | > 100 µM | > 100 µM | > 100 µM | > 100 µM
O=C1CC2=CCCC2O1 (configuration not stated) | > 100 µM | > 100 µM | > 100 µM | > 100 µM | > 100 µM | > 100 µM | > 100 µM | > 100 µM | > 100 µM | > 100 µM |  |  |  |  |  |  |  |  |  | 
CN(C)Cc1nsc(N(C)C)n1 | > 100 µM | > 100 µM | > 100 µM | > 100 µM | > 100 µM | > 100 µM | > 100 µM | > 100 µM | > 100 µM | > 100 µM |  |  |  |  |  |  |  |  |  | 
CC(C)(C)c1ccc(OCCCCCCCN2CCNCC2)cc1 | 3.47 µM | 3.6 µM | 3.38 µM | 4.25 µM | 3.06 µM | 3.78 µM | 3.74 µM | 2.92 µM | 3.12 µM | 6.11 µM | 1.83 µM | 1.85 µM | 1.64 µM | 1.83 µM | 1.6 µM | 1.84 µM | 1.57 µM | 1.63 µM | 1.72 µM | 1.3 µM
